Patent US20090304692A1, “TRIAZINE COMPOUNDS AS PI3 KINASE AND MTOR INHIBITORS” (Wyeth, priority 2008, published 2009)
Values joined by “and” are separate entries in the source; they are usually repeats but may differ in a detail not shown here. Equal entries are not always repeated. Where two headings read alike, the source gives them in different places.

How the values were obtained:
PI3K-α = PI3K-α (Homo sapiens, UniProt P42336); assay: PI3K-alpha fluorescence polarization assay; conditions: read-out: IC50 PI3Kα
Human mTOR (FLAG-TOR) = Human mTOR (FLAG-TOR) (Homo sapiens, UniProt P42345); assay: mTOR kinase assay (DELFIA format, purified enzyme); format: biochemical; conditions: read-out: IC50 mTOR
PI3K-γ = PI3K-γ (Homo sapiens, UniProt P48736); assay: PI3K-gamma fluorescence polarization assay
PI3K-γ, sequence (P48736 whole entry, species assumed): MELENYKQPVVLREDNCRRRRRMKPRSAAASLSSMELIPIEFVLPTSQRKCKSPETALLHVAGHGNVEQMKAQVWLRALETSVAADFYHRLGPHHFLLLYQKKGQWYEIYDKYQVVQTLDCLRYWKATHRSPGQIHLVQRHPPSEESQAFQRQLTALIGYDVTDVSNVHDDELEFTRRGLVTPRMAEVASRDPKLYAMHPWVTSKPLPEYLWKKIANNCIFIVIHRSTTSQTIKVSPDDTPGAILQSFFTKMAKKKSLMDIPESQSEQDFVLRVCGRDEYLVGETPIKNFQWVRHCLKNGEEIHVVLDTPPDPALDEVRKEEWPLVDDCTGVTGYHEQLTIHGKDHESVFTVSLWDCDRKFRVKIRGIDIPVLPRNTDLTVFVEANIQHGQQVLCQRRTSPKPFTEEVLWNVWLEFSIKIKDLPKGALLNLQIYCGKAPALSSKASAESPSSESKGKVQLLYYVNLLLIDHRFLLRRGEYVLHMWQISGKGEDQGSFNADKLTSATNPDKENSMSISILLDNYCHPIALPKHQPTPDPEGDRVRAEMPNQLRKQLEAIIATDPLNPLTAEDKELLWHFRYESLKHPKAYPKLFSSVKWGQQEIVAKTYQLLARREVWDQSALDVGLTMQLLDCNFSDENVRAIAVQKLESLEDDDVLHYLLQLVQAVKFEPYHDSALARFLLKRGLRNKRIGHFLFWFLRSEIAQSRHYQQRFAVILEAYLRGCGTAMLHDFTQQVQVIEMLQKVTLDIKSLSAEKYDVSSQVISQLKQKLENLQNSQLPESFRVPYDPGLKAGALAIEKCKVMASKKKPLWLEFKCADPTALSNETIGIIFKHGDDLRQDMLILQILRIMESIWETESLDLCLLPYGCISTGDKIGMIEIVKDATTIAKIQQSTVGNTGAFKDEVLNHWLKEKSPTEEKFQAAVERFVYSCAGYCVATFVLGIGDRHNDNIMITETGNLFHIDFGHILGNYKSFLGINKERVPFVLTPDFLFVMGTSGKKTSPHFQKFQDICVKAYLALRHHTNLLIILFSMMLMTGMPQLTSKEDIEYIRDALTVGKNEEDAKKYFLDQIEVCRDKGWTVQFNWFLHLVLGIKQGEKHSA

Human mTOR (FLAG-TOR), sequence (P42345 1360-2549 limits assumed): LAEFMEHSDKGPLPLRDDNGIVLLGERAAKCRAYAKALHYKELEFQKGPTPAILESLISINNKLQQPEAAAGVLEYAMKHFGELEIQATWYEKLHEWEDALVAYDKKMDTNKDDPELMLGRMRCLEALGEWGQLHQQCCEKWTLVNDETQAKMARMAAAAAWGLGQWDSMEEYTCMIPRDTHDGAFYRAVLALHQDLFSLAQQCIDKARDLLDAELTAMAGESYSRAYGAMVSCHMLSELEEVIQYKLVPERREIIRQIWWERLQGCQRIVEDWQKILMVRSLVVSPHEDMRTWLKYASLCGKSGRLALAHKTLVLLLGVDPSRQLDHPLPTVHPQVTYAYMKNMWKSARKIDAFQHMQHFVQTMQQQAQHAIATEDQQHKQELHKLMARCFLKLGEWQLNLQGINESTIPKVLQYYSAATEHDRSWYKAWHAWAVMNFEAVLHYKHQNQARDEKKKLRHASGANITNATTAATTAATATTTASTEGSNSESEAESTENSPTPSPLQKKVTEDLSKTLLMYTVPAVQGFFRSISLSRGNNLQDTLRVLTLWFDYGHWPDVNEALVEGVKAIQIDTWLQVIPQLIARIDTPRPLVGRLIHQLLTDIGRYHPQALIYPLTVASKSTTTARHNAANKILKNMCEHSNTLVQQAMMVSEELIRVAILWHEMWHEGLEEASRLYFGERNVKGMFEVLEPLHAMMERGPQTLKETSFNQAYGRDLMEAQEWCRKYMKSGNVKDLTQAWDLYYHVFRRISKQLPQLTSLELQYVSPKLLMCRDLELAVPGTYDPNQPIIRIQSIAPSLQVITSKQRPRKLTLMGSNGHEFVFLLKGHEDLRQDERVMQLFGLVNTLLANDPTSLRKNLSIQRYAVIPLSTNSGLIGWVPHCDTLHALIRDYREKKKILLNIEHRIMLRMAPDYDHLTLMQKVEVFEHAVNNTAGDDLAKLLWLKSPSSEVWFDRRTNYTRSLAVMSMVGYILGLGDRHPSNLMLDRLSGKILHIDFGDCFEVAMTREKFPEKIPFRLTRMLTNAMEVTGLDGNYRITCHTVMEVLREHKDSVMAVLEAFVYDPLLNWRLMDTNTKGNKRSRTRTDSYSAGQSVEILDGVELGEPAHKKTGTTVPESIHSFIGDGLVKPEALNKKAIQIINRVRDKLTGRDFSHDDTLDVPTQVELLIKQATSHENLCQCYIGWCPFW
PI3K-α, sequence (P42336 whole entry, species assumed): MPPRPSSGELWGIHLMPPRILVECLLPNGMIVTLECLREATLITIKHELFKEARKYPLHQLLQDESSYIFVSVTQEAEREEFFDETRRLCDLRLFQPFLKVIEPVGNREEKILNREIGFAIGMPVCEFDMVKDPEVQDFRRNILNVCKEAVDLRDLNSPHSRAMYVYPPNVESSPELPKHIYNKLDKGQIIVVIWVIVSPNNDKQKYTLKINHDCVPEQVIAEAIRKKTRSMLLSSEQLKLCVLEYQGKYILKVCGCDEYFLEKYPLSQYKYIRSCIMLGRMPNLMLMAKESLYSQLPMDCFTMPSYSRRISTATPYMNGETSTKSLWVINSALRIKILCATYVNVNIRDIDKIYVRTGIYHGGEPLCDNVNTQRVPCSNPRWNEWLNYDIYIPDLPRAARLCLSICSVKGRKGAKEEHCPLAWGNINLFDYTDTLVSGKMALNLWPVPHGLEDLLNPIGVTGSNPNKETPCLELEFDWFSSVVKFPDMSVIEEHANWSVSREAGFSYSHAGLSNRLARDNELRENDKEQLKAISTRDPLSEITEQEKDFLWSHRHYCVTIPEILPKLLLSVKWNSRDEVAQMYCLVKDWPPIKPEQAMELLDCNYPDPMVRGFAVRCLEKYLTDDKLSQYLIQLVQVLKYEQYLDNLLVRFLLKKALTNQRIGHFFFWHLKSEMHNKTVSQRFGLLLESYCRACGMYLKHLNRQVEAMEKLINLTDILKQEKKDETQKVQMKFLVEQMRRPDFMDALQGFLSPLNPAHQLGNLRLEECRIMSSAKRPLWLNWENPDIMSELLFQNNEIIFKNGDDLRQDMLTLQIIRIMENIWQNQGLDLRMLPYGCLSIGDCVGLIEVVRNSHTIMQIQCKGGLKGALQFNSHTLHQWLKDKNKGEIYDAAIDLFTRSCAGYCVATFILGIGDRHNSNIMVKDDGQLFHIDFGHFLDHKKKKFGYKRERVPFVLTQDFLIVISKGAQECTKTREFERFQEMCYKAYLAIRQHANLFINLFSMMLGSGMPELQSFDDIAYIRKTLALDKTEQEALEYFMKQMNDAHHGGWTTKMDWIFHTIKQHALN
PI3K-α, sequence (P27986 whole entry partner, species assumed): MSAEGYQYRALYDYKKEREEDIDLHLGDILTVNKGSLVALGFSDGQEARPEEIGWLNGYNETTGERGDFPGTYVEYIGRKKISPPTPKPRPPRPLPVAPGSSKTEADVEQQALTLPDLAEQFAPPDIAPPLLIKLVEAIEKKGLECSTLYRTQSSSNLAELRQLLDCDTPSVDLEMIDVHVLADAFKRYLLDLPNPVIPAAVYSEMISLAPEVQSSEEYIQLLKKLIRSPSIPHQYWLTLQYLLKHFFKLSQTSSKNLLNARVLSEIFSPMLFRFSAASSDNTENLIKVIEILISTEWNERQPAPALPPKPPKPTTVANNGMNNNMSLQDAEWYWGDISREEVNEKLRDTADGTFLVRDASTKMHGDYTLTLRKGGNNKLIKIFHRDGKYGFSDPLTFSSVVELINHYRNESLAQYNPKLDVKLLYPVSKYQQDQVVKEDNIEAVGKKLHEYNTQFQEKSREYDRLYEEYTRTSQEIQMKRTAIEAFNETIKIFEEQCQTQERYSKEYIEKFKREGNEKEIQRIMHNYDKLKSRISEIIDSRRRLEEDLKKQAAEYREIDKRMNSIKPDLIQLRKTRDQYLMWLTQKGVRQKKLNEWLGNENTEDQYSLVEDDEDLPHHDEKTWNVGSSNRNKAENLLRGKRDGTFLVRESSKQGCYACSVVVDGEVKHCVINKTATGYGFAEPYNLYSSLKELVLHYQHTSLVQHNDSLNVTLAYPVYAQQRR

| IC50 (PI3K-α) [nM] | IC50 (Human mTOR (FLAG-TOR)) | IC50 (PI3K-γ; read-out: IC50 PI3Kγ) [nM] | IC50 (PI3K-α; listed as 526) [nM] | IC50 (PI3K-γ; read-out: IC50 PI3Kγ, listed as 526) [nM] | SMILES | IC50 (PI3K-γ) [nM] |
| --- | --- | --- | --- | --- | --- | --- |
| 75 | 62 nM | 294 |  |  | COC(=O)c1ccc(NC(=O)Nc2ccc(-c3nc(C4=CCOCC4)nc(N4CCOCC4)n3)cc2)cc1 [Example 226, methyl 4-[({4-[4-(3,6-dihydro-2H-pyran-4-yl)-6-morpholin-4-yl-1,3,5-triazin-2-yl]phenyl}carbamoyl)amino]benzoate] |  |
| 7540 | 11 nM | 2380 |  |  | CCCCc1nc(-c2ccc(NC(=O)Nc3ccc(C(=O)OC)cc3)cc2)nc(N2CCOCC2)n1 [Example 188, methyl 4-({[4-(4-butyl-6-morpholin-4-yl-1,3,5-triazin-2-yl)phenyl]carbamoyl}amino)benzoate] |  |
| 59 | 1 nM | 208 |  |  | C[C@@H]1COCCN1c1nc(-c2ccc(NC(=O)Nc3ccc(C(=O)O)cc3)cc2)nc(N2CCOC[C@@H]2C)n1 [Example 626, 4-{[(4-{4-[(3R)-3-methylmorpholin-4-yl]-6-[(3S)-3-methylmorpholin-4-yl]-1,3,5-triazin-2-yl}phenyl)carbamoyl]amino}benzoic acid] |  |
| 97 | 40 nM and 47.5 nM | 6700 | 96.5 | 6700 | Cc1ccc(-c2nc(-c3ccc(NC(=O)Nc4ccc(N5CCN(C)CC5)cc4)cc3)nc(N3CCOCC3)n2)cc1 [Example 343, 1-{4-[4-(4-methylphenyl)-6-morpholin-4-yl-1,3,5-triazin-2-yl]phenyl}-3-[4-(4-methylpiperazin-1-yl)phenyl]urea] |  |
| 513 | 230 nM | 1090 |  |  | COC(=O)c1cccc(NC(=O)Nc2ccc(-c3nc(-c4cccs4)nc(N4CCOCC4)n3)cc2)c1 [Example 582, methyl 3-({[4-(4-morpholin-4-yl-6-thiophen-2-yl-1,3,5-triazin-2-yl)phenyl]carbamoyl}amino)benzoate] |  |
| 3620 | 720 nM |  |  |  | CC(=O)NC1CCN(c2nc(-c3ccc(NC(=O)Nc4ccc(C(=O)O)cc4)cc3)nc(N3CCOCC3)n2)CC1 [Example 659, 4-{[(4-{4-[4-(acetylamino)piperidin-1-yl]-6-morpholin-4-yl-1,3,5-triazin-2-yl}phenyl)carbamoyl]amino}benzoic acid] | ≥ 10000 |
| 33 | 1 nM | 137 |  |  | C[C@H]1COCCN1c1nc(-c2ccc(NC(=O)Nc3ccc(C(=O)O)cc3)cc2)nc(N2CCOCC2)n1 [Example 619, 4-{[(4-{4-[(3S)-3-methylmorpholin-4-yl]-6-morpholin-4-yl-1,3,5-triazin-2-yl}phenyl)carbamoyl]amino}benzoic acid] |  |
| 2920 | 32.5 nM | 1080 |  |  | CC(C)c1nc(-c2ccc(NC(=O)Nc3ccc(-c4cnc(N(C)C)nc4)cc3)cc2)nc(N2CCOCC2)n1 [Example 493, 1-{4-[2-(dimethylamino)pyrimidin-5-yl]phenyl}-3-{4-[4-(1-methylethyl)-6-morpholin-4-yl-1,3,5-triazin-2-yl]phenyl}urea] |  |
| 87.5 | 405 nM | 378 |  |  | Cc1ccc(-c2nc(-c3ccc(NC(=O)Nc4ccc(C(=O)N5CCCCC5)cc4)cc3)nc(N3CCOCC3)n2)cc1 [Example 555, 1-{4-[4-(4-methylphenyl)-6-morpholin-4-yl-1,3,5-triazin-2-yl]phenyl}-3-[4-(piperidin-1-ylcarbonyl)phenyl]urea] |  |
| 65 | 12 nM | 131 |  |  | CCc1nc(-c2ccc(NC(=O)Nc3cccc(C(=O)O)c3)cc2)nc(N2CCOCC2)n1 [Example 585, 3-({[4-(4-ethyl-6-morpholin-4-yl-1,3,5-triazin-2-yl)phenyl]carbamoyl}amino)benzoic acid] |  |
| 244 | 65 nM | 593 |  |  | O=C(Nc1ccc(C(=O)O)cc1)Nc1ccc(-c2nc(NS(=O)(=O)c3ccccc3)nc(N3CCOCC3)n2)cc1 [Example 790, 4-{[(4-{4-morpholin-4-yl-6-[(phenylsulfonyl)amino]-1,3,5-triazin-2-yl}phenyl)carbamoyl]amino}benzoic acid] |  |
| 123 | 48 nM | 718 |  |  | Cc1ccc(-c2nc(-c3ccc(NC(=O)Nc4cccc(C(=O)NCCN(C)C)c4)cc3)nc(N3CCOCC3)n2)cc1 [Example 583, N-[2-(dimethylamino)ethyl]-3-[({4-[4-(4-methylphenyl)-6-morpholin-4-yl-1,3,5-triazin-2-yl]phenyl}carbamoyl)amino]benzamide] |  |
| 333 | 0.125 nM | 197 |  |  | COC(=O)c1ccc(NC(=O)Nc2ccc(-c3nc(-c4ccccc4)nc(N4CCOCC4)n3)cc2)cc1 [Example 538, methyl 4-({[4-(4-morpholin-4-yl-6-phenyl-1,3,5-triazin-2-yl)phenyl]carbamoyl}amino)benzoate] |  |

The next lines start with the compound.

| SMILES | IC50 (PI3K-α) [nM] | IC50 (Human mTOR (FLAG-TOR)) | IC50 (PI3K-γ; read-out: IC50 PI3Kγ) [nM] | IC50 (PI3K-α; listed as 526) [nM] | IC50 (PI3K-γ; read-out: IC50 PI3Kγ, listed as 526) [nM] | IC50 (PI3K-γ) [nM] |
| --- | --- | --- | --- | --- | --- | --- |
| CC(C)N1CCCN(c2nc(-c3ccc(NC(=O)Nc4ccc(C(=O)N5CCN(C)CC5)cc4)cc3)nc(N3CCOCC3)n2)CC1 [Example 657, 1-(4-{4-[4-(1-methylethyl)-1,4-diazepan-1-yl]-6-morpholin-4-yl-1,3,5-triazin-2-yl}phenyl)-3-{4-[(4-methylpiperazin-1-yl)carbonyl]phenyl}urea] | 11.5 | 385 nM | 128 |  |  |  |
| O=C(Nc1ccncc1)Nc1ccc(-c2nc(N3CCOCC3)nc(N3C4COCC3[C@H](OCc3ccccc3)C4)n2)cc1 (stereo partly drawn) [Example 821, 1-(4-{4-[(6R)-6-(benzyloxy)-3-oxa-8-azabicyclo[3.2.1]oct-8-yl]-6-morpholin-4-yl-1,3,5-triazin-2-yl}phenyl)-3-pyridin-4-ylurea] | 9.3 | 3.4 nM | 58.3 |  |  |  |
| CCc1nc(-c2ccc(NC(=O)Nc3cccc(C(=O)N4CCN(C)CC4)c3)cc2)nc(N2CCOCC2)n1 [Example 589, 1-[4-(4-ethyl-6-morpholin-4-yl-1,3,5-triazin-2-yl)phenyl]-3-{3-[(4-methylpiperazin-1-yl)carbonyl]phenyl}urea] | 718 | 57 nM | 1620 |  |  |  |
| CC(C)NC(=O)Nc1ccc(-c2nc(N3CCOCC3)nc(N3C4CCC3COC4)n2)cc1 [Example 44, 1-isopropyl-3-{4-[4-morpholin-4-yl-6-(3-oxa-8-azabicyclo[3.2.1]oct-8-yl)-1,3,5-triazin-2-yl]phenyl}urea] | 1580 | 13.5 nM | 9500 |  |  |  |
| Cc1cc(NC(=O)Nc2ccc(-c3nc(N4CCOCC4)nc(N4CC5CCC4CO5)n3)cc2)n(C)n1 (centres unmarked) [Example 808, 1-(1,3-dimethyl-1H-pyrazol-5-yl)-3-{4-[4-morpholin-4-yl-6-(2-oxa-5-azabicyclo[2.2.2]oct-5-yl)-1,3,5-triazin-2-yl]phenyl}urea] | 381 | 260 nM | 1260 |  |  |  |
| CCS(=O)(=O)N1CCN(c2nc(-c3ccc(NC(=O)Nc4ccncc4)cc3)nc(N3CCOCC3)n2)CC1 [Example 650, 1-(4-{4-[4-(ethylsulfonyl)piperazin-1-yl]-6-morpholin-4-yl-1,3,5-triazin-2-yl}phenyl)-3-pyridin-4-ylurea] | 23.5 | 22 nM | 104 |  |  |  |
| CC(C)N1CCCN(c2nc(-c3ccc(NC(=O)Nc4ccc(C(=O)NCCN(C)C)cc4)cc3)nc(N3CCOCC3)n2)CC1 [Example 660, N-[2-(dimethylamino)ethyl]-4-{[(4-{4-[4-(1-methylethyl)-1,4-diazepan-1-yl]-6-morpholin-4-yl-1,3,5-triazin-2-yl}phenyl)carbamoyl]amino}benzamide] | 7.5 | 305 nM | 168 |  |  |  |
| Nc1ccc(-c2nc(N3CCOCC3)nc(N3C4CCC3COC4)n2)cc1 [Example 33, 4-[4-morpholin-4-yl-6-(3-oxa-8-azabicyclo[3.2.1]oct-8-yl)-1,3,5-triazin-2-yl]aniline] | 2550 | 91 nM |  |  |  | > 10000 |
| CN1CCN(C(=O)c2ccc(NC(=O)Nc3ccc(-c4nc(N5CCOCC5)nc(N5C6CCC5COC6)n4)cc3)cc2)CC1(C)C [Example 837, 1-{4-[4-(morpholin-4-yl)-6-(3-oxa-8-azabicyclo[3.2.1]oct-8-yl)-1,3,5-triazin-2-yl]phenyl}-3-{4-[(3,3,4-trimethylpiperazin-1-yl)carbonyl]phenyl}urea] | 3.7 | 515 nM | 19.5 |  |  |  |
| CC(=O)N1CC2CN(c3nc(-c4ccc(NC(=O)Nc5ccncc5)cc4)nc(N4CCOCC4)n3)CC(C1)O2 [Example 292, 1-{4-[4-(7-acetyl-9-oxa-3,7-diazabicyclo[3.3.1]non-3-yl)-6-morpholin-4-yl-1,3,5-triazin-2-yl]phenyl}-3-pyridin-4-ylurea] | 1500 | 70 nM and 68 nM | 3690 |  |  |  |
| CN(C)CCN1CCN(C(=O)c2ccc(NC(=O)Nc3ccc(-c4nc(N5CCOCC5)nc(N5CCOCC5)n4)cc3)cc2)CC1 [Example 168, 1-[4-({4-[2-(dimethylamino)ethyl]piperazin-1-yl}carbonyl)phenyl]-3-[4-(4,6-dimorpholin-4-yl-1,3,5-triazin-2-yl)phenyl]urea] | 1 | 3.6 nM | 3 |  |  |  |
| C[C@@H]1COCCN1c1nc(-c2ccc(NC(=O)Nc3cccnc3)cc2)nc(C2CCOCC2)n1 [Example 420, (R)-1-(4-(4-(3-methylmorpholino)-6-(tetrahydro-2H-pyran-4-yl)-1,3,5-triazin-2-yl)phenyl)-3-(pyridin-3-yl)urea] | 593 | 0.63 nM | 4360 |  |  |  |
| C[C@H]1COCCN1c1nc(-c2ccc(NC(=O)Nc3ccc(C(=O)O)cc3)cc2)nc(N2C3CCC2COC3)n1 [Example 832, 4-{[(4-{4-[(3S)-3-methylmorpholin-4-yl]-6-(3-oxa-8-azabicyclo[3.2.1]oct-8-yl)-1,3,5-triazin-2-yl}phenyl)carbamoyl]amino}benzoic acid] | 61.5 | 165 nM | 342 |  |  |  |
